Data from PubChem BioAssay AID330 (DTP/NCI, 2004).
Values joined by “and” are separate entries in the source; they are usually repeats but may differ in a detail not shown here. Equal entries are not always repeated. Inconclusive results and toxic doses are left out. The calls were made as follows: active = survival T/C of 150% or more; inactive = T/C below 125% in these data. Peptide text beside a SMILES is read from it.

System: P388 leukemia ip, CD2F1 mice, survival T/C
Experiment: NCI In Vivo Anticancer Drug Screen. Data for tumor model P388 Leukemia (intraperitoneal) in CD2F1 (CDF1) mice
Conditions: endpoint: median survival time, higher = longer survival
Method in brief: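 Mice carrying the transplanted tumor received test compound or vehicle. Survival was recorded in each group, and the value is the treated-group measurement divided by that of the vehicle-treated control group.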

[1] = dose: 50.0 mg/kg/injection, schedule: Q01DX005 (ip), vehicle: saline with Tween-80
[2] = dose: 100.0 mg/kg/injection, schedule: Q01DX005 (ip), vehicle: saline with Tween-80
[3] = dose: 200.0 mg/kg/injection, schedule: Q01DX005 (ip), vehicle: saline with Tween-80
[4] = dose: 60.0 mg/kg/injection, schedule: Q01DX005 (ip), vehicle: Klucel (hydroxypropylcellulose) (HPC)
[5] = dose: 120.0 mg/kg/injection, schedule: Q01DX005 (ip), vehicle: Klucel (hydroxypropylcellulose) (HPC)
[6] = dose: 60.0 mg/kg/injection, schedule: Q01DX005 (ip), vehicle: saline with Tween-80
[7] = dose: 120.0 mg/kg/injection, schedule: Q01DX005 (ip), vehicle: saline with Tween-80
[8] = dose: 240.0 mg/kg/injection, schedule: Q01DX005 (ip), vehicle: saline with Tween-80
[9] = dose: 6.25 mg/kg/injection, schedule: Q01DX009 (ip), vehicle: saline
[10] = dose: 50.0 mg/kg/injection, schedule: Q01DX009 (ip), vehicle: saline
[11] = dose: 100.0 mg/kg/injection, schedule: Q01DX009 (ip), vehicle: saline
[12] = dose: 200.0 mg/kg/injection, schedule: Q01DX009 (ip), vehicle: saline
[13] = dose: 50.0 mg/kg/injection, schedule: Q01DX005 (ip), vehicle: Klucel (hydroxypropylcellulose) (HPC)
[14] = dose: 100.0 mg/kg/injection, schedule: Q01DX005 (ip), vehicle: Klucel (hydroxypropylcellulose) (HPC)
[15] = dose: 200.0 mg/kg/injection, schedule: Q01DX005 (ip), vehicle: Klucel (hydroxypropylcellulose) (HPC)

Measured: T/C

Cc1cc(N=Cc2c(CO)cnc(C)c2O)c(N=Cc2c(CO)cnc(C)c2O)cc1C.[Zn]
inactive: [1] 100 % of control | [2] 99 % of control | [3] 100 % of control

OC[C@H]1N[C@H](CO)[C@@H](O)[C@H]1O
inactive: dose: 60.0 mg/kg/injection, schedule: Q01DX005 (ip), vehicle: saline 100 % of control | dose: 120.0 mg/kg/injection, schedule: Q01DX005 (ip), vehicle: saline 99 % of control | dose: 240.0 mg/kg/injection, schedule: Q01DX005 (ip), vehicle: saline 103 % of control

NS(=O)(=O)c1nc2nc[nH]c(=O)c2[nH]1
inactive: [1] 100 % of control | [2] 106 % of control | [3] 101 % of control

COc1cc2c(c(=O)c3ccccc3n2C)c2c1c(=O)c1ccccc1n2C
inactive: [4] 96 % of control | [5] 98 % of control

NC1=C(O)C(=O)C(c2ccccn2)O1 (centres undefined)
inactive: dose: 25.0 mg/kg/injection, schedule: Q01DX001 (ip), vehicle: other 105 % of control | dose: 50.0 mg/kg/injection, schedule: Q01DX001 (ip), vehicle: other 119 % of control | dose: 100.0 mg/kg/injection, schedule: Q01DX001 (ip), vehicle: other 116 % of control

COc1cc([C@H]2c3cc4c(cc3CC3COC(=O)[C@@H]32)OCO4)cc(Br)c1O (some centres undefined)
inactive: dose: 15.0 mg/kg/injection, schedule: Q01DX005 (ip), vehicle: saline with Tween-80 101 % of control | dose: 30.0 mg/kg/injection, schedule: Q01DX005 (ip), vehicle: saline with Tween-80 101 % of control | [6] 99 % of control and 104 % of control | [7] 110 % of control | [8] 110 % of control

COC1C(=O)c2ccccc2N1C(C)=O (centres undefined)
inactive: [4] 108 % of control | [5] 101 % of control | dose: 240.0 mg/kg/injection, schedule: Q01DX005 (ip), vehicle: Klucel (hydroxypropylcellulose) (HPC) 99 % of control

S=c1nn[nH]n1-c1cccc2ccccc12
inactive: dose: 100.0 mg/kg/injection, schedule: Q04DX003 (ip), vehicle: saline sonified 90 % of control | dose: 200.0 mg/kg/injection, schedule: Q04DX003 (ip), vehicle: saline sonified 100 % of control | dose: 400.0 mg/kg/injection, schedule: Q04DX003 (ip), vehicle: saline sonified 100 % of control

O=[N+]([O-])c1nccn1C1OC(CO)C(O)C1O (centres undefined)
inactive: [9] 98 % of control | dose: 12.5 mg/kg/injection, schedule: Q01DX009 (ip), vehicle: saline 99 % of control | dose: 25.0 mg/kg/injection, schedule: Q01DX009 (ip), vehicle: saline 104 % of control | [10] 104 % of control

CCOC(CCl)OCC
inactive: [9] 103 % of control and 105 % of control

NC(CCCCNCC(N)C(=O)O)C(=O)O (centres undefined)
inactive: [10] 91 % of control | [11] 89 % of control | [12] 92 % of control

NC(N)=NCCCC(N)C(=O)NC(CCCN=C(N)N)C(=O)O (stereo not drawn) (H-Arg-Arg-OH; configuration not given here)
inactive: [13] 103 % of control | [14] 100 % of control | [15] 100 % of control

O=c1nc2n(CC(O)C(O)C(O)C(O)CO)c3ccc(Cl)cc3nc-2c(=O)[nH]1 (centres undefined)
inactive: dose: 50.0 mg/kg/injection, schedule: Q01DX005 (ip), vehicle: saline 104 % of control | dose: 100.0 mg/kg/injection, schedule: Q01DX005 (ip), vehicle: saline 104 % of control | dose: 200.0 mg/kg/injection, schedule: Q01DX005 (ip), vehicle: saline 104 % of control

CC1(C)CC(=O)C2=C(C1)NC1=C(C(=O)CC(C)(C)C1)C2c1cccs1
inactive: [1] 98 % of control | [2] 98 % of control | [3] 93 % of control

O=C1c2ccc3ccccc3c2CN2C(=O)CCC12 (centres undefined)
inactive: [6] 105 % of control | [7] 103 % of control | [8] 104 % of control

O=C1NC(=O)C(C(=O)Nc2ccc(Cl)cc2)c2ccccc21 (centres undefined)
inactive: [13] 101 % of control | [14] 95 % of control | [15] 99 % of control

COC(=O)C12Oc3ccc(-c4ccc5c(c4O)C(O)=C4C(=O)CC(C)C(O)C4(C(=O)OC)O5)c(O)c3C(O)=C1C(=O)CC(C)C2O (centres undefined)
inactive: dose: 0.39 mg/kg/injection, schedule: Q01DX009 (ip), vehicle: saline with Tween-80 100 % of control | dose: 0.78 mg/kg/injection, schedule: Q01DX009 (ip), vehicle: saline with Tween-80 104 % of control | dose: 1.56 mg/kg/injection, schedule: Q01DX009 (ip), vehicle: saline with Tween-80 106 % of control | dose: 2.5 mg/kg/injection, schedule: Q01DX009 (ip), vehicle: saline with Tween-80 96 % of control | dose: 3.13 mg/kg/injection, schedule: Q01DX009 (ip), vehicle: saline with Tween-80 112 % of control | dose: 5.0 mg/kg/injection, schedule: Q01DX009 (ip), vehicle: saline with Tween-80 100 % of control | dose: 6.25 mg/kg/injection, schedule: Q04DX003 (ip), vehicle: saline with Tween-80 104 % of control | dose: 8.33 mg/kg/injection, schedule: Q04DX003 (ip), vehicle: saline with Tween-80 104 % of control | dose: 10.0 mg/kg/injection, schedule: Q01DX009 (ip), vehicle: saline with Tween-80 105 % of control | dose: 12.5 mg/kg/injection, schedule: Q04DX003 (ip), vehicle: saline with Tween-80 109 % of control | dose: 18.7 mg/kg/injection, schedule: Q04DX003 (ip), vehicle: saline with Tween-80 113 % of control | dose: 25.0 mg/kg/injection, schedule: Q04DX003 (ip), vehicle: saline with Tween-80 118 % of control

CCc1cccc(CC)c1NC(=O)OCCN(CC)CC
inactive: [6] 100 % of control | [7] 94 % of control

C=CCOc1ccc2ccc(=O)oc2c1
inactive: dose: 50.0 mg/kg/injection, schedule: Q04DX003 (ip), vehicle: saline with Tween-80 109 % of control | dose: 100.0 mg/kg/injection, schedule: Q04DX003 (ip), vehicle: saline with Tween-80 104 % of control | dose: 200.0 mg/kg/injection, schedule: Q04DX003 (ip), vehicle: saline with Tween-80 101 % of control

CCCCCCCCCCCCCCCCCCOC(=O)C1CCCN1 (centres undefined)
inactive: dose: 100.0 mg/kg/injection, schedule: Q04DX002 (ip), vehicle: Klucel (hydroxypropylcellulose) (HPC) 101 % of control | dose: 200.0 mg/kg/injection, schedule: Q04DX002 (ip), vehicle: Klucel (hydroxypropylcellulose) (HPC) 99 % of control | dose: 400.0 mg/kg/injection, schedule: Q04DX002 (ip), vehicle: Klucel (hydroxypropylcellulose) (HPC) 94 % of control

COc1ccc(-n2nc3c(c2-c2cccnc2)CCCc2ccccc2-3)cc1
inactive: [1] 95 % of control | [2] 106 % of control | [3] 101 % of control

O=CNc1cccnc1C1OCCO1
inactive: [13] 98 % of control | [14] 102 % of control | [15] 102 % of control

Cc1oc(NCc2ccccc2)c(C#N)c1C
inactive: dose: 50.0 mg/kg/injection, schedule: Q01DX009 (ip), vehicle: saline + alcohol 105 % of control | dose: 100.0 mg/kg/injection, schedule: Q01DX009 (ip), vehicle: saline + alcohol 90 % of control | dose: 200.0 mg/kg/injection, schedule: Q01DX009 (ip), vehicle: saline + alcohol 91 % of control

O=C(OCC12OC1C(=O)C1OC1C2O)c1ccccc1 (centres undefined)
inactive: dose: 1.88 mg/kg/injection, schedule: Q04DX002 (ip), vehicle: saline with Tween-80 104 % of control | dose: 3.75 mg/kg/injection, schedule: Q04DX002 (ip), vehicle: saline with Tween-80 105 % of control | dose: 7.5 mg/kg/injection, schedule: Q04DX002 (ip), vehicle: saline with Tween-80 101 % of control

Cc1cc(Br)ccc1N=c1scc(-c2ccc(Cl)cc2)n1C
inactive: dose: 50.0 mg/kg/injection, schedule: Q01DX009 (ip), vehicle: Klucel (hydroxypropylcellulose) (HPC) 95 % of control | dose: 100.0 mg/kg/injection, schedule: Q01DX009 (ip), vehicle: Klucel (hydroxypropylcellulose) (HPC) 93 % of control | dose: 200.0 mg/kg/injection, schedule: Q01DX009 (ip), vehicle: Klucel (hydroxypropylcellulose) (HPC) 91 % of control

O=C(Nc1ccc2c(O)c(N=Nc3ccc(N=Nc4ccc(S(=O)(=O)O)cc4)cc3)c(S(=O)(=O)O)cc2c1)c1ccccc1
inactive: [10] 100 % of control | [11] 95 % of control | [12] 103 % of control

CC1=NNB(O)c2ccsc21
inactive: dose: 50.0 mg/kg/injection, schedule: Q01DX009 (ip), vehicle: saline with Tween-80 98 % of control | dose: 100.0 mg/kg/injection, schedule: Q01DX009 (ip), vehicle: saline with Tween-80 99 % of control | dose: 200.0 mg/kg/injection, schedule: Q01DX009 (ip), vehicle: saline with Tween-80 108 % of control
